“Also recorded” adds a separate entry of the source. Read-outs that look alike come from different tables or passages of the source.
How the values were obtained:
HIV-1 = test: NCI (Weislow) anti-HIV screen, XTT cell protection, HIV-1 infected CEM-SS; assay type: cell-based; details: for anti-HIV activity / relative potency in words: NCI anti-HIV screen; for Classification (Active / Moderately Active / Inactive): Weislow assay, criteria of NCI protocol; for Classification (Active / Moderately Active / Inactive) / TI (therapeutic index, IC50/EC50): CEM-SS, HIV-1; for EC50: Human immunodeficiency virus 1, 6 days, HIV-1 infected CEM-SS cells, 8c, 8d tested as racemic drug, read-out: EC50 (effective inhibition for 50% of cell growth); for EC50 / TI (therapeutic index, IC50/EC50): Table 3; for TI (therapeutic index, IC50/EC50): 8640 min
Experimental: The compounds of this invention were also all assayed for activity in inhibiting the growth of HIV, human immunodeficiency virus, the virus known to cause AIDS. The protocol^25 was that of the National Cancer Institute (NCI) of the National Institutes of Health. The primary screen makes use of the HIV-1 strain of the virus. By this protocol, the procedure is as follows:
(1) The sample is dissolved in dimethyl sulfoxide, then diluted 1:100 in cell culture medium before preparing serial half-log10 dilutions. T4 lymphocytes (CEM cell line) are added, and after a brief interval, HIV-1 is added, resulting in a 1:200 dilution of the compound. Uninfected cells with the compound serve as a toxicity control, and infected and uninfected cells without the compound serve as basic controls. […]
(§1) (3) The tetrazolium salt, XTT, is added to all wells, and cultures are incubated to allow formazan color development by viable cells.
(§2) (4) Individual wells are analyzed spectrophotometrically to quantitate fornazan production, and in addition are viewed microscopically for detection of viable cells and confirmation of protective activity.
(§3) (5) Drug-treated, virus-infected cells are compared with drug-treated, noninfected cells and with other appropriate controls (untreated infected and untreated noninfected cells, drug-containing wells without cells, etc.) on the same plate.
(6) Data are reviewed in comparison with other tests done at the same time, and a determination about activity is made.
(§4) The results are given for IC50 and EC50. IC50 is a measure of "concentration for inhibition of 50% of cell growth" and is measured from drug-treated, uninfected cells, thus giving a measure of drug toxicity toward T4 lymphocytes. The EC50 is "effective inhibition for 50% of cell growth" and is measured on drug-treated, HIV-infected cells. A ratio of these values, IC50 /EC50 gives the therapeutic index, a measure of the overall effectiveness of the drug in halting virus-infestedcell growth. Typically for anti-HIV drugs to be classed as "active" in the NCI protocol, the IC50 value should be at least micromolar (10^-6 M) and the EC50 value should be sub-micromolar (10^-7 M or lower); however, these values are only ideal, and may vary a log-order in magnitude or more. […] Large, positive TI values, measured in the 10^2 -10^3 range indicate a potent, relatively nontoxic drug and represent the near-ideal drug candidate.
(§5) ^a Testing was conducted according to NCI's protocol [Weislow, O. W.
(§6) et al. J. Natl. Cancer Inst. 1989, 81, 577-586]. The virus strain was
(§7) HIV1, and the cell line was CEMSS.

[1] = system: T4 lymphocytes (CEM cell line), CEMSS; test: NCI protocol toxicity control: growth of drug-treated, uninfected CEM-SS cells; assay type: cell-based; details: Homo sapiens, Table 3, 8b-8e tested as racemic drug, read-out: IC50 (concentration for inhibition of 50% of cell growth)
Experimental: (§8) (1) The sample is dissolved in dimethyl sulfoxide, then diluted 1:100 in cell culture medium before preparing serial half-log10 dilutions. T4 lymphocytes (CEM cell line) are added, and after a brief interval, HIV-1 is added, resulting in a 1:200 dilution of the compound. Uninfected cells with the compound serve as a toxicity control, and infected and uninfected cells without the compound serve as basic controls.
(§9) (2) Cultures are incubated at 37° C. in a 5% carbon dioxide atmosphere for six days.
as §1, §2, §3, §4, §5, §6, §7

[2] = system: human immunodeficiency virus (HIV); details: four diastereomers of the calanolide series, literature, cited from earlier work
[3] = system: HIV-1 (6R), an AZT-resistant strain; test: NCI protocol, HIV-1 (6R) AZT-resistant strain, MT4 cells; assay type: cell-based; details: for EC50: Human immunodeficiency virus 1, MT4; for TI (IC50/EC50) / Classification: Table 4, HIV-1 (6R), MT4 cells; for Classification: NCI criteria
Experimental: as §8, §9, §1, §2, §3, §4
(§10) Among these are the following strains of the virus: (1) HIV-1 (6R), an AZT-resistant strain; (2) N119, a nevirapine-resistant strain bearing a mutation at AA codon 181; (2) DPS, a diphenyl sulfone-resistant strain bearing a different mutation at AA codon 181.
as §5, §6
(§11) HIV1, and the cell line was MT4.

[4] = system: N119, a nevirapine-resistant strain bearing a mutation at AA codon 181; test: NCI protocol, N119 nevirapine-resistant strain, MT4 cells; assay type: cell-based, HIV-1; details: for EC50: Human immunodeficiency virus 1, MT4; for Classification: NCI criteria
Experimental: as §8, §9, §1, §2, §3, §4, §10, §5, §6, §11

[5] = system: DPS, a diphenyl sulfone-resistant strain bearing a different mutation at AA codon 181; test: NCI protocol, DPS diphenyl sulfone-resistant strain, MT4 cells; assay type: cell-based, HIV-1; details: for EC50: Human immunodeficiency virus 1, MT4; for TI (IC50/EC50) / Classification: Table 4, DPS, MT4 cells; for Classification: NCI criteria
Experimental: as §8, §9, §1, §2, §3, §4, §10, §5, §6, §11

MT4 cells = test: NCI protocol toxicity control: growth of drug-treated, uninfected MT4 cells; assay type: cell-based; details: Homo sapiens
Experimental: as §8, §9, §1, §2, §3, §4, §5, §6, §11

[6] = system: strains of HIV resistant to other drugs that inhibit HIV reverse transcriptase; test: Activity against HIV strains resistant to other HIV reverse transcriptase inhibitors (summary in words); assay type: cell-based; details: HIV-1 (6R), N119, DPS
Source text: as §10
From the data in the Table, both compounds (-)-7a and 8a were classified as "active" for inhibition of each resistant HIV strain. From the large TI values, their potencies against these resistant strains of the virus are novel and remarkable. Other compounds of the invention are expected also to have this property.
as §5, §6, §11

[7] = MT4, Table 4, line of strain DPS
[8] = MT4, Table 4, line of strain HIV-1 (6R)
[9] = MT4, Table 4, line of strain N119

CCCc1cc(=O)oc2c3c(cc(OC)c12)O[C@H](C)[C@@H](C)[C@@H]3O (relative stereo) [Compound 8b]
anti-HIV activity / relative potency in words (HIV-1): less potent activities
Classification (Active / Moderately Active / Inactive) (HIV-1): Inactive
IC50 [1]: > 200 µM

CCCc1cc(=O)oc2c3c(cc(OC(C)CC)c12)O[C@H](C)[C@@H](C)[C@@H]3O (relative stereo) [Compound 8c]
EC50 (HIV-1): 3.66 µM
anti-HIV activity / relative potency in words (HIV-1): less potent activities
TI (therapeutic index, IC50/EC50) (HIV-1): 10.2
Classification (Active / Moderately Active / Inactive) (HIV-1): Mod. Active; also recorded: moderately active
IC50 [1]: 37.4 µM

C#CCOc1cc2c(c3oc(=O)cc(CCC)c13)[C@@H](O)[C@H](C)[C@@H](C)O2 (relative stereo) [Compound 8e]
anti-HIV activity / relative potency in words (HIV-1): less potent activities
Classification (Active / Moderately Active / Inactive) (HIV-1): Inactive
IC50 [1]: 8.34 µM

CCCc1cc(=O)oc2c3c(c4c(c12)OC(C)(C)C=C4)OC(C)C(C)C3O (single isomer, unassigned; (-)) [(-)-calanolide B]
anti-HIV potency of known calanolides, in words [2]: the more potent of the four diastereomers; also recorded: more potent diastereomers in this class

CCCc1cc(=O)oc2c3c(c4c(c12)OC(C)(C)C=C4)O[C@H](C)[C@@H](C)[C@@H]3O [(+)-calanolide A]
anti-HIV potency of known calanolides, in words [2]: the more potent of the four diastereomers
anti-HIV potency of known calanolides, in words ([2]; listed as (+)-Calanolide A): more potent diastereomers in this class

CCCc1cc(=O)oc2c3c(cc(OC(C)C)c12)O[C@@H](C)[C@H](C)[C@@H]3O [(-)-7a, (-)-(8S,9R,10S)-10-Hydroxy-5-isopropyloxy-8,9-dimethyl-4-propyl-9,10-di-hydro-8H-pyrano[2,3-f]-chromen-2-one]
EC50 (HIV-1): 0.963 µM
anti-HIV activity / relative potency in words (HIV-1): highly potent; also recorded: remarkable
anti-HIV activity / relative potency in words (HIV-1; listed as (-)-7): consistently showed impressive results in the anti-HIV screen
TI (therapeutic index, IC50/EC50) (HIV-1): 84.2
Classification (Active / Moderately Active / Inactive) (HIV-1): Active
IC50 [1]: 8.11 µM
EC50 [3]: 0.639 µM
TI (IC50/EC50) [3]: 16.9
Classification [3]: Active
EC50 [4]: 0.00701 µM
TI (IC50/EC50) ([4]; Table 4, N119, MT4 cells): 1540
Classification ([4]; Table 4, N119, MT4 cells): Active
EC50 [5]: 0.099 µM
TI (IC50/EC50) [5]: 121
Classification [5]: Active
IC50 (MT4 cells; [7]): 12 µM
IC50 (MT4 cells; [8]): 10.8 µM
IC50 (MT4 cells; [9]): 11.1 µM
inhibitory activity against resistant HIV strains, in words [6]: potent inhibitory activities; also recorded: active; also recorded: potent activity

CCCc1cc(=O)oc2c3c(cc(OC(C)C)c12)O[C@@H](C)[C@H](C)[C@H]3O [(-)-8a, (-)-(8S, 9R, 10R)-10-Hydroxy-5-isopropyloxy-8,9-dimethyl-4-propyl-9,10-dihydro-8H-pyrano[2,3-f]-chromen-2-one]
anti-HIV activity / relative potency in words (HIV-1): consistently showed impressive results in the anti-HIV screen
Classification (Active / Moderately Active / Inactive) (HIV-1): Inactive
IC50 [1]: 7.34 µM

CCCc1cc(=O)oc2c3c(cc(OC(C)C)c12)O[C@H](C)[C@@H](C)[C@H]3O [Compound 7a, (+)-(8R,9S,10R)-10-Hydroxy-5-isopropyloxy-8,9-dimethyl-4-propyl-9,10-di-hydro-8H-pyrano[2,3-f]-chromen-2-one]
anti-HIV activity / relative potency in words (HIV-1): consistently showed impressive results in the anti-HIV screen
Classification (Active / Moderately Active / Inactive) (HIV-1): Inactive
IC50 [1]: 8.4 µM

CCCc1cc(=O)oc2c3c(cc(OC(C)C)c12)O[C@H](C)[C@@H](C)[C@@H]3O [Compound 8a, (+)-(8R,9S,10S)-10-Hydroxy-5-isopropyloxy-8,9-dimethyl-4-propyl-9,10-dihydro-8H-pyrano[2,3-f]-chromen-2-one]
EC50 (HIV-1): 0.161 µM
anti-HIV activity / relative potency in words (HIV-1): consistently showed impressive results in the anti-HIV screen; also recorded: remarkable
anti-HIV activity / relative potency in words (HIV-1; listed as (+)-8a): remarkable among the congeners of the invention
TI (therapeutic index, IC50/EC50) (HIV-1): 130
Classification (Active / Moderately Active / Inactive) (HIV-1): Active
IC50 [1]: 21 µM
EC50 [3]: 0.365 µM
TI (IC50/EC50) [3]: 54.8
Classification [3]: Active
EC50 [4]: 0.00635 µM
Classification ([4]; Table 4, N119, MT4 cells): Active
EC50 [5]: 0.0649 µM
TI (IC50/EC50) [5]: > 308
Classification [5]: Active
IC50 (MT4 cells; [7]): > 20 µM
IC50 (MT4 cells; [8]): > 20 µM
IC50 (MT4 cells; [9]): > 20 µM
inhibitory activity against resistant HIV strains, in words [6]: potent inhibitory activities; also recorded: active
inhibitory activity against resistant HIV strains, in words ([6]; listed as (+)-8a): potent activity
